Data published in patent US10865203B2, “Ligands selective to alpha 6 subunit-containing GABAA receptors and their methods of use” (UWM Research Foundation, Inc., priority 2015, dated 2020).
Values after ≈ are worked out from the molar mass of the structure shown. “Also recorded” adds a separate entry of the source.

Key:
[1] = test system: METH-impaired PPI in C57/B6 mice; experiment: PPI test, methamphetamine-impaired prepulse inhibition; format: in vivo, mouse; details: for rescue of METH-impaired PPI: mice, compound 10 mg/kg i.p. 15 min before METH 2 mg/kg i.p.
Method: All animal experiments conducted at NTU were approved by the Institutional Animal Care and Use Committee of College of Medicine, National Taiwan University. C57/B6 (8-10 weeks) mice were used for the PPI test and Wistar rats (8-9 weeks) were used in the migraine model. Animals were housed in an animal room with a 12-h light/12-h dark cycle and free access to food and water.
The PPI test was conducted with a PPI apparatus (SR-LAB, San Diego Instruments, San Diego, Calif.) consisting of a startle chamber equipped with various programming acoustic stimulations. After acclimation, the mouse was gently placed in the startle chamber for a 4 min acclimation period with a background noise of 65 dB, which continued throughout the whole PPI test session. One PPI test session consisted of 4 types of startle trials, including the trial with the startle pulse (115 dB) alone (PULSEALONE; 115 dB, 20 ms), two trials with the startle pulse paired with 71 and 77 dB prepulses, respectively (PREPULSE+PULSE; 71 dB+115 dB and 77 dB+115 dB), and the trial without stimulus (NOSTIM; background 65 dB only). A test session started and ended, respectively, with four NOSTIM trials and four PULSEALONE trials. In between, each of the four types of trials was presented 14 times randomly, that is, 56 trials were given in a test session. The intertrial interval was given randomly from 5 to 20 s. In the PREPULSE+PULSE trial, a 71 or 77 dB prepulse was given 120 ms before the 115 dBpulse. The magnitude of PPI (PPI %) was determined, after summarizing the startle responses in PULSEALONE and PREPULSE+PULSE trials, according to the equation (PULSEALON−PREPULSE+PULSE)/PULSEALONE×100%. The tested compound or vehicle was given to the animal for 15 min, followed by methamphetamine (2 mg/kg). The PPI test was conducted 10 min after injection of methamphetamine. Data were expressed as the mean±S.E.M. Statistical comparisons among groups were analyzed by ANOVA with Tukey post hoc test, and differences between groups were analyzed by Student's t-test. Two-way ANOVA with Bonferroni's post hoc test was used to analyze differences in the time courses of locomotor activity among groups. Differences were considered significant if P<0.05.
Methamphetamine and apomorphine were dissolved in normal saline for i.p. And s.c. Injections, respectively. Tested compounds and haloperidol, when given by i.p. Injection, were dissolved in a vehicle containing 20% dmso, 20% Cremophor® el (polyoxyethylene castor, sigma-aldrich) and 60% normal saline. Furosemide was dissolved (20 nmole/μL) in dimethylsulfoxide for intra-cerebellar microinjection the i.p. or s.c. Injection volume was 10 mL/kg.

[2] = Microsomal stability assay, mouse liver microsomes; format: in vitro ADME; details: for stability in Mouse liver microsomes: Table 2
Outline: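 Test compound at 10 μM was preincubated 5 min at 37 °C in phosphate buffer pH 7.4 with NADPH regenerating system, then started with human or mouse liver microsomes at 0.5 mg/mL protein. Samples were taken at 0–60 min and quenched in cold acetonitrile with internal standard. Slope k came from ln peak-area ratio versus time, three repeats in duplicate.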

[3] = Solubility of compounds in DI water; format: physicochemical; details: thermodynamic from solid; 2 mg in 2 mL DI water, sonicated at 60° C. for 2 hours, cooled to room temperature, filtered
Method: The solubility of the compounds was examined by sonicating 2 mg of each respective compound in 2 mL of DI water at 60° C. for 2 hours. Solutions were cooled to room temperature and then filtered using a syringe filter. The resultant solutions were injected into a mass spectrometer using a SIM method, calibrated to the respective retention times and mass units of each compound. Calibration curves using standard solutions (5 data points) of each compound dissolved in methanol were used to calculate the unknown aqueous concentrations of each compound.

[4] = 10 μM test compound, 0.5 mg/mL protein, 37° C.

Compound | rescue of METH-impaired PPI [1] | % left after 1 hr. (MLM) [2, 4] [%] | Half-life (min) (MLM) [2, 4] | stability in Mouse liver microsomes [2] [%] | effect of intra-cerebellar furosemide on the rescue of PPI ([1]; furosemide 10 nmol intra-cerebellar microinjection) | rescue of METH-impaired PPI ([1]; listed as C6) | rescue of METH-impaired PPI ([1]; listed as compound 6) | half-life at 10 μM ([2]; mouse, liver microsomes, pH 7.4, 10 μM test compound, 0.5 mg/mL protein, 37° C., read-out: Half-life (min) (MLM)) | solubility at 2 h [3] [µg/mL] | higher stability compared to non-Deuterated (DK-II-13-1) ([2]; mouse liver microsomes) [%]
COc1cccc(-n2nc3c4cc(Cl)ccc4[nH]cc-3c2=O)c1 [LAU 159, 8-Chloro-2-(3-methoxyphenyl)-2,5-dihydro-3H-pyrazolo[4,3-c]quinolin-3-one] | effective; also recorded: comparable rescue effect as Compound 6 | 59.83 ± 0.23 | 89.07 ± 5.22 | ~60 |  |  |  |  |  | 
COc1ccc(-n2nc3c4ccc(Br)cc4[nH]cc-3c2=O)cc1 [LAU 463, 7-Bromo-2-(4-methoxyphenyl)-2,5-dihydro-3H-pyrazolo[4,3-c]quinolin-3-one] | effective; also recorded: comparable rescue effect as Compound 6 | 69 ± 0.16 | 113.17 ± 5.15 |  |  |  |  |  |  | 
COc1ccc(-n2nc3c4ccc(OC)cc4[nH]cc-3c2=O)cc1 [Compound 6, 7-Methoxy-2-(4-methoxyphenyl)-2,5-dihydro-3H-pyrazolo[4,3-c]quinolin-3-one] | effectively rescued | 80.35 ± 0.14 |  | 80 | prevented | significantly rescued | effective; also recorded: significantly rescued | 194 ± 11.4 |  | 
[2H]C([2H])([2H])Oc1ccc(-n2nc3c4ccc(OC)cc4[nH]cc-3c2=O)cc1 [DK-I-56-1, 7-Methoxy-2-(4-methoxy-d3-phenyl)-2,5-dihydro-3H-pyrazolo[4,3-c]quinolin-3-one] | effective | 92.8 ± 0.09 | 628.8 ± 73 |  |  |  |  |  | 11.4 (≈ 35.1 µM) | 
[2H]C([2H])([2H])Oc1ccc2c3nn(-c4ccc(OC)nc4)c(=O)c-3c[nH]c2c1 [DK-I-86-1, 7-Methoxy-d3-2-(6-methoxypyridin-3-yl)-2,5-dihydro-3H-pyrazolo[4,3-c]quinolin-3-one] |  | 91.3 ± 0.12 | 550.6 ± 78 |  |  |  |  |  | 211 (≈ 649 µM) | ~20
